# Test system: TRIM24-MET-i cells
# Procedure: The number of unique and shared differentially expressed genes between each comparison are shown in parentheses. A linear regression line is depicted along with Pearson’s correlation coefficient (r) and its associated p-value. […] Common negatively enriched genesets between all three comparisons are in bold. c, Heatmaps showing expression of Hallmark_Myc_Target_v1/2 genes for indicated cells and treatment comparisons (TRIM-MET cells were treated in vitro, TFG-MET cells in vivo). Select leading edge genes from GSEA are labeled.
structure (smiles),measurement,setting,value
C[C@@H](Oc1cc(-c2cnn(C3CCNCC3)c2)cnc1N)c1c(Cl)ccc(F)c1Cl [Crizotinib],ES GOMF_CATALYTIC_ACTIVITY_ACTING_ON_A_TRNA,,-0.6982
same,ES GOMF_GTPASE_ACTIVITY,,-0.4838
same,ES GOMF_GUANYL_NUCLEOTIDE_BINDING,,-0.4485
same,ES GOMF_HYDROLASE_ACTIVITY_ACTING_ON_ACID_ANHYDRIDES,,-0.386
same,ES GOMF_RRNA_BINDING,,-0.7423
same,NES GOMF_CATALYTIC_ACTIVITY_ACTING_ON_A_TRNA,,-2.2819
same,NES GOMF_GTPASE_ACTIVITY,,-1.922
same,NES GOMF_GUANYL_NUCLEOTIDE_BINDING,,-1.812
same,NES GOMF_HYDROLASE_ACTIVITY_ACTING_ON_ACID_ANHYDRIDES,,-1.664
same,NES GOMF_RRNA_BINDING,,-2.231
same,ES GARY_CD5_TARGETS_DN,GSEA v. DMSO,-0.652
same,ES HALLMARK_ADIPOGENESIS,GSEA v. DMSO,-0.2603
same,ES HALLMARK_ALLOGRAFT_REJECTION,GSEA v. DMSO,-0.4058
same,ES HALLMARK_ANDROGEN_RESPONSE,GSEA v. DMSO,-0.4828
same,ES HALLMARK_ANGIOGENESIS,GSEA v. DMSO,-0.5624
same,ES HALLMARK_APICAL_JUNCTION,GSEA v. DMSO,-0.293
same,ES HALLMARK_APICAL_SURFACE,GSEA v. DMSO,0.4986
same,ES HALLMARK_APOPTOSIS,GSEA v. DMSO,-0.4398
same,ES HALLMARK_CHOLESTEROL_HOMEOSTASIS,GSEA v. DMSO,0.2795
same,ES HALLMARK_COAGULATION,GSEA v. DMSO,-0.4513
same,ES HALLMARK_COMPLEMENT,GSEA v. DMSO,-0.5126
same,ES HALLMARK_DNA_REPAIR,GSEA v. DMSO,-0.2541
same,ES HALLMARK_E2F_TARGETS,GSEA v. DMSO,-0.2746
same,ES HALLMARK_EPITHELIAL_MESENCHYMAL_TRANSITION,GSEA v. DMSO,-0.3755
same,ES HALLMARK_ESTROGEN_RESPONSE_EARLY,GSEA v. DMSO,-0.4277
same,ES HALLMARK_ESTROGEN_RESPONSE_LATE,GSEA v. DMSO,-0.3421
same,ES HALLMARK_G2M_CHECKPOINT,GSEA v. DMSO,-0.3012
same,ES HALLMARK_GLYCOLYSIS,GSEA v. DMSO,-0.404
same,ES HALLMARK_HEDGEHOG_SIGNALING,GSEA v. DMSO,-0.4466
same,ES HALLMARK_HYPOXIA,GSEA v. DMSO,-0.3351
same,ES HALLMARK_IL2_STAT5_SIGNALING,GSEA v. DMSO,-0.5189
same,ES HALLMARK_IL6_JAK_STAT3_SIGNALING,GSEA v. DMSO,-0.4268
same,ES HALLMARK_INFLAMMATORY_RESPONSE,GSEA v. DMSO,-0.4921
same,ES HALLMARK_INTERFERON_ALPHA_RESPONSE,GSEA v. DMSO,0.2583
same,ES HALLMARK_INTERFERON_GAMMA_RESPONSE,GSEA v. DMSO,-0.3093
same,ES HALLMARK_KRAS_SIGNALING_DN,GSEA v. DMSO,0.3288
same,ES HALLMARK_KRAS_SIGNALING_UP,GSEA v. DMSO,-0.4922
same,ES HALLMARK_MITOTIC_SPINDLE,GSEA v. DMSO,-0.2568
same,ES HALLMARK_MTORC1_SIGNALING,GSEA v. DMSO,-0.5236
same,ES HALLMARK_MYC_TARGETS_V1,GSEA v. DMSO,-0.6267
same,ES HALLMARK_MYC_TARGETS_V2,GSEA v. DMSO,-0.805
same,ES HALLMARK_MYOGENESIS,GSEA v. DMSO,-0.2282
same,ES HALLMARK_NOTCH_SIGNALING,GSEA v. DMSO,-0.4408
same,ES HALLMARK_OXIDATIVE_PHOSPHORYLATION,GSEA v. DMSO,-0.4296
same,ES HALLMARK_P53_PATHWAY,GSEA v. DMSO,-0.2784
same,ES HALLMARK_PANCREAS_BETA_CELLS,GSEA v. DMSO,0.2429
same,ES HALLMARK_PEROXISOME,GSEA v. DMSO,0.273
same,ES HALLMARK_PI3K_AKT_MTOR_SIGNALING,GSEA v. DMSO,-0.3625
same,ES HALLMARK_PROTEIN_SECRETION,GSEA v. DMSO,-0.4081
same,ES HALLMARK_TGF_BETA_SIGNALING,GSEA v. DMSO,-0.5775
same,ES HALLMARK_TNFA_SIGNALING_VIA_NFKB,GSEA v. DMSO,-0.5914
same,ES HALLMARK_UNFOLDED_PROTEIN_RESPONSE,GSEA v. DMSO,-0.6237
same,ES HALLMARK_UV_RESPONSE_DN,GSEA v. DMSO,-0.3089
same,ES HALLMARK_UV_RESPONSE_UP,GSEA v. DMSO,-0.4076
same,ES HALLMARK_WNT_BETA_CATENIN_SIGNALING,GSEA v. DMSO,-0.3432
same,ES KRIGE_RESPONSE_TO_TOSEDOSTAT_6HR_DN,GSEA v. DMSO,-0.6237
same,ES KRIGE_RESPONSE_TO_TOSEDOSTAT_24HR_DN,GSEA v. DMSO,-0.6444
same,ES LEE_BMP2_TARGETS_DN,GSEA v. DMSO,-0.6669
same,ES WEI_MYCN_TARGETS_WITH_E_BOX,GSEA v. DMSO,-0.6994
same,NES GARY_CD5_TARGETS_DN,GSEA v. DMSO,-2.697
same,NES HALLMARK_ADIPOGENESIS,GSEA v. DMSO,-0.9905
same,NES HALLMARK_ALLOGRAFT_REJECTION,GSEA v. DMSO,-1.519
same,NES HALLMARK_ANDROGEN_RESPONSE,GSEA v. DMSO,-1.666
same,NES HALLMARK_ANGIOGENESIS,GSEA v. DMSO,-1.626
same,NES HALLMARK_APICAL_JUNCTION,GSEA v. DMSO,-1.114
same,NES HALLMARK_APICAL_SURFACE,GSEA v. DMSO,1.572
same,NES HALLMARK_APOPTOSIS,GSEA v. DMSO,-1.646
same,NES HALLMARK_CHOLESTEROL_HOMEOSTASIS,GSEA v. DMSO,0.993
same,NES HALLMARK_COAGULATION,GSEA v. DMSO,-1.59
same,NES HALLMARK_COMPLEMENT,GSEA v. DMSO,-1.9374
same,NES HALLMARK_DNA_REPAIR,GSEA v. DMSO,-0.9367
same,NES HALLMARK_E2F_TARGETS,GSEA v. DMSO,-1.051
same,NES HALLMARK_EPITHELIAL_MESENCHYMAL_TRANSITION,GSEA v. DMSO,-1.427
same,NES HALLMARK_ESTROGEN_RESPONSE_EARLY,GSEA v. DMSO,-1.626
same,NES HALLMARK_ESTROGEN_RESPONSE_LATE,GSEA v. DMSO,-1.298
same,NES HALLMARK_G2M_CHECKPOINT,GSEA v. DMSO,-1.145
same,NES HALLMARK_GLYCOLYSIS,GSEA v. DMSO,-1.5363
same,NES HALLMARK_HEDGEHOG_SIGNALING,GSEA v. DMSO,-1.301
same,NES HALLMARK_HYPOXIA,GSEA v. DMSO,-1.274
same,NES HALLMARK_IL2_STAT5_SIGNALING,GSEA v. DMSO,-1.973
same,NES HALLMARK_IL6_JAK_STAT3_SIGNALING,GSEA v. DMSO,-1.432
same,NES HALLMARK_INFLAMMATORY_RESPONSE,GSEA v. DMSO,-1.856
same,NES HALLMARK_INTERFERON_ALPHA_RESPONSE,GSEA v. DMSO,0.9765
same,NES HALLMARK_INTERFERON_GAMMA_RESPONSE,GSEA v. DMSO,-1.175
same,NES HALLMARK_KRAS_SIGNALING_DN,GSEA v. DMSO,1.322
same,NES HALLMARK_KRAS_SIGNALING_UP,GSEA v. DMSO,-1.8648
same,NES HALLMARK_MITOTIC_SPINDLE,GSEA v. DMSO,-0.9855
same,NES HALLMARK_MTORC1_SIGNALING,GSEA v. DMSO,-2.004
same,NES HALLMARK_MYC_TARGETS_V1,GSEA v. DMSO,-2.398
same,NES HALLMARK_MYC_TARGETS_V2,GSEA v. DMSO,-2.6016
same,NES HALLMARK_MYOGENESIS,GSEA v. DMSO,-0.867
same,NES HALLMARK_NOTCH_SIGNALING,GSEA v. DMSO,-1.2742
same,NES HALLMARK_OXIDATIVE_PHOSPHORYLATION,GSEA v. DMSO,-1.635
same,NES HALLMARK_P53_PATHWAY,GSEA v. DMSO,-1.06
same,NES HALLMARK_PANCREAS_BETA_CELLS,GSEA v. DMSO,0.7197
same,NES HALLMARK_PEROXISOME,GSEA v. DMSO,1.047
same,NES HALLMARK_PI3K_AKT_MTOR_SIGNALING,GSEA v. DMSO,-1.259
same,NES HALLMARK_PROTEIN_SECRETION,GSEA v. DMSO,-1.414
same,NES HALLMARK_TGF_BETA_SIGNALING,GSEA v. DMSO,-1.842
same,NES HALLMARK_TNFA_SIGNALING_VIA_NFKB,GSEA v. DMSO,-2.258
same,NES HALLMARK_UNFOLDED_PROTEIN_RESPONSE,GSEA v. DMSO,-2.204
same,NES HALLMARK_UV_RESPONSE_DN,GSEA v. DMSO,-1.132
same,NES HALLMARK_UV_RESPONSE_UP,GSEA v. DMSO,-1.522
same,NES HALLMARK_WNT_BETA_CATENIN_SIGNALING,GSEA v. DMSO,-1.0353
same,NES KRIGE_RESPONSE_TO_TOSEDOSTAT_6HR_DN,GSEA v. DMSO,-2.692
same,NES KRIGE_RESPONSE_TO_TOSEDOSTAT_24HR_DN,GSEA v. DMSO,-2.791
same,NES LEE_BMP2_TARGETS_DN,GSEA v. DMSO,-2.874
same,NES WEI_MYCN_TARGETS_WITH_E_BOX,GSEA v. DMSO,-3.001
same,ES GOBP_NCRNA_PROCESSING,"GSEA, v. DMSO",-0.7604
same,ES GOBP_RIBONUCLEOPROTEIN_COMPLEX_BIOGENESIS,"GSEA, v. DMSO",-0.7216
same,ES GOBP_RIBOSOME_BIOGENESIS,"GSEA, v. DMSO",-0.7916
